The text below walks through data of US9949956B2, “Compounds, compositions, and methods for preventing metastasis of cancer cells” (Aerpio Therapeutics, Inc., priority 2009, dated 2018).

Several values for one entry are separate records, joined by “and”; a condition that tells them apart may be missing. Equal values may be shown once.

Assay [1] deals with H460-GFP human tumor cells. Nature of the assay: In vivo anti-metastasis study, surgical orthotopic implantation of H460-GFP tumor fragments on the lung. On the set-up: species or system NCr nu/nu male mice. The note with it: for Evidence of Metastasis (individual mouse): mice No. 1-10; for # mice with metastases: ten mice per group. The procedure: A total of 50 NCr nu/nu male mice aged 5-6 weeks were selected for the following in vivo test. H460-GFP human tumor cells were grown subcutaneously in NCr nu/nu male mice after which the resulting tumors were harvested. Subsequent to harvesting, recipient NCr nu/nu mice of this study had tumor fragments transplanted by surgical orthotopic implantation (SOI). Each animal was anesthetized is isofurane and the surgical area was sterilized with iodine and alcohol. A transverse incision approximately 1.5 cm long was made in the left chest wall of the mice using a pair of surgical scissors. An intercostal incision was made between the third and the fourth costa and the left lung was exposed. Two pieces of H460-GFP tumor fragments were transplanted to the surface of the lung with 8-0 surgical nylon suture. […]. The lung was re-inflated by the intrathoracic puncture using 3 cc syringe with 25 G 11⁄2 needle to draw out the remaining air in the chest cavity. The chest wall was closed with 6-0 surgical silk sutures. All procedures of the operation described above were performed with a 7× magnification microscope (Olympus) under HEPA filtered laminar flow hoods. The treated mice were divided into five groups containing ten mice each. Group I (Control) received 100 μL the drug vehicle twice daily for 15 days. Group II received 15 mg/kg of taxol intravenously at days 6, 9, 12, and 15. […] Group IV received 10 mg/kg of taxol intravenously at days 6, 9, 12, and 15 and 15 mg/kg of the Test Compound twice per day from day 3 to day 15. Group V received 15 mg/kg of the Test Compound twice per day from day 3 to day 15. All animals were sacrificed on day 28. Each animal was checked twice a week for primary tumor and metastasis via GFP open imaging of the mediastinal lymph nodes. No metastasis was found on any other organs. Six mice from the control group died before the end of the study, but were evaluated for tumor and/or cellular metastasis.

The test system of the next assay is B16 melanoma cells. Nature of the assay: In vivo anticancer study, B16 melanoma. On the set-up: species or system C57BL/6 mice. As for the experimental part:
The effectiveness of the disclosed compounds as a treatment for melanoma was studied. C57BL/6 mice (6-8 weeks-old, female, Taconic Farm) were inoculated with B16 melanoma cells (5×10^4 cells/site, s.c.). […] Tumor volumes were recorded. […] Tumor volumes were recorded.

The subject of another assay is Renca renal cancer cells. Nature of the assay: In vivo anticancer study, renal cell carcinoma (Renca). On the set-up: species or system Balb/c mice. Conditions: FIG. 1 and FIG. 2. As for the experimental part:
The effectiveness of the disclosed compounds as a treatment against renal cell carcinoma was studied. Balb/c mice (6-8 weeks-old, female, Taconic Farm) were inoculated with Renca renal cancer cells (5×10^5 cells/site). […] Tumor volumes were recorded.

In assay [2] the test system is MiaPaCa-2-RFP tumor fragments. Put plainly: In vivo pancreatic cancer study, surgical orthotopic implantation of MiaPaCa-2-RFP tumor fragments. The note with it: FIG. 9. On the set-up: species or system NCr nu/nu males. The text has this:
The effectiveness of the disclosed compounds as a treatment for pancreatic cancer was investigated. 60 NCr nu/nu males, 5-6 weeks old were transplanted by surgical orthotopic implantation (SOI) using MiaPaCa-2-RFP tumor fragments harvested from stock animals. The animals were anesthetized with isoflurane and the surgical area was sterilized using iodine and alcohol. An incision approximately 1.5 cm long was made in the left upper abdomen of the nude mouse using a pair of surgical scissors. […] The abdomen was closed with 6-0 surgical sutures (silk). All procedures of the operation described above were performed with a 7× magnification microscope (Olympus) under HEPA filtered laminar flow hoods. Dosing of the animals began three days following tumor implantation. The high dose of gemcitabine was 150 mg/kg. The low dose of gemcitabine was 100 mg/kg. […] was given at 20 mg/kg. […] The animals were divided into the following groups often animals each as depicted in Table XXII.

Consider `COC(=O)N[C@@H](Cc1ccccc1)C(=O)N[C@@H](Cc1ccc(NS(=O)(=O)O)cc1)c1csc(-c2cccs2)n1` [D91, 4-{(S)-2-[(S)-2-(Methoxycarbonylamino)-3-phenylpropanamido]-2-[2-(thiophen-2-yl)thiazol-4-yl]ethyl}phenylsulfamic acid], for which the “Evidence of Metastasis (individual mouse)” value in assay [1] (Group V: D91 15 mg/kg twice per day, day 3 to 15, 15 mg/kg) is “Yes (2×) and No (8×)”. Also, in assay [1] (Group V: D91 15 mg/kg twice per day, day 3 to 15), the “# mice with metastases” value was 2. In addition, the “B16 melanoma tumor volume” value with B16 melanoma cells (40 mg/kg b.i.d. D91 alone versus vehicle control, FIG. 8) was “effectiveness”. In addition, the tumor volume entry with B16 melanoma cells (high dose of IL-2 (300,000 IU/mouse, bid, i.p.) in combination with high dose of D91 (40 mg/kg, bid, s.c.), compared to high dose IL-2 alone, FIG. 3) is listed as “significantly reduced tumor volume as compared to high dose of IL-2”; in the assay with B16 melanoma cells (low dose of IL-2 (100,000 IU/mouse, bid, i.p.) in combination with high dose of D91 (40 mg/kg, bid, s.c.) versus control, FIG. 6) it was “significantly reduced tumor volume versus control”; in the assay on Renca renal cancer cells (combination of D91 (40 mg/kg, bid, s.c.) and IL-2 (100,000 IU/mouse, bid, i.p.)), “further reduced tumor volume”; in assay [2] (combination of low dose gemcitabine (100 mg/kg i.p.) and 20 mg/kg D91, compared with either alone) it was “greater reduction in tumor volume”. Also, the “reducing tumor volume, compared with IL-2” value with Renca renal cancer cells (D91 40 mg/kg bid s.c. versus IL-2 100,000 IU/mouse bid i.p.) was “as effective as IL-2 in reducing tumor volume”. For the same compound, the renal tumor growth entry with Renca renal cancer cells (D91 40 mg/kg, bid, s.c. alone) is listed as “significantly reduced renal tumor growth”. Moreover, the pancreatic tumor volume result in assay [2] (D91 20 mg/kg s.c. twice daily alone, day 28) is reported as “significant reduction in pancreatic tumor volume”.

Turning to `CC(=O)O[C@H]1C(=O)[C@@]2(C)[C@H]([C@H](OC(=O)c3ccccc3)[C@]3(O)C[C@H](OC(=O)[C@H](O)[C@@H](NC(=O)c4ccccc4)c4ccccc4)C(C)=C1C3(C)C)[C@]1(OC(C)=O)CO[C@@H]1C[C@@H]2O` [taxol, reference compound], in assay [1] (Group II: taxol 15 mg/kg i.v. at days 6, 9, 12, 15, GFP open imaging of mediastinal lymph nodes), the “Evidence of Metastasis (individual mouse)” value is “No (9×) and Yes”. Further, the “# mice with metastases” value in assay [1] (Group II: taxol 15 mg/kg i.v. at days 6, 9, 12, 15) is 1.
